The results in this text go back to article PMC12030627, “Radioiodinated Bicyclic RGD Peptide Derivatives for Enhanced Tumor Accumulation” (Pharmaceuticals, 2025).

The test system of this data set is A549 and U-87 MG co-implantation mice. Nature of the data set: Biodistribution in A549 and U-87 MG co-implantation mice. It is filed as in vivo, BALB/c nu-nu mice. Here is the method: Animal experiments were performed in compliance with institutional animal care regulations, with the study protocol approved by the Experimental Animal Committee of Osaka Medical and Pharmaceutical University (Approval Numbers: 21–76, 22–76, and 23–76). Four-week-old male BALB/c nu-nu mice (Japan SLC, Shizuoka, Japan) were housed under a 12 h light/12 h dark cycle with free access to food and water. Tumor-bearing mice were established by suspending U-87 MG cells (2 × 10^6 cells/mouse) in PBS(–) and subcutaneously injecting 100 μL of the suspension into the right hind leg. For co-implantation models, A549 cells (2 × 10^6 cells/mouse) were suspended in PBS(–) and inoculated (100 μL) into the left hind leg of the same mice already inoculated with U-87 MG cells. Mice with tumor size approximately 10 mm in diameter, 4–5 weeks after inoculation, were used for biodistribution studies. Animals in which either tumor was not viable were excluded from the experiment.
U-87 MG-bearing mice (n = 42, 8–9 weeks old; 22–27 g) were randomly assigned into groups and administered [^125I]bcRGDpal or [^125I]bcRGDiba via intravenous injection (37 kBq in 100 μL of PBS containing 0.1% Tween 80 (PBS-T80)). At 5 min, 30 min, 1 h, 2 h, 6 h, 12 h, or 24 h post-injection, the mice were euthanized (n = 3 per time point). The heart, kidneys, liver, brain, pancreas, spleen, lung, small intestine, large intestine, muscle, skin, stomach, bone, and tumors were excised. Each organ’s weight and radioactivity were measured by a NaI well-type scintillation counter, and the % ID/g was calculated. To investigate the correlation between integrin expression and radioactivity accumulation, biodistribution at 2 h after administration of [^125I]bcRGDpal or [^125I]bcRGDiba was assessed in A549 and U-87 MG co-implantation mice (n = 5) using the same procedure. Additionally, co-implantation mice were injected with [^125I]bcRGDdimer (37 kBq/100 μL PBS-T80) and euthanized at 30 min, 2 h, and 4 h post-injection (n = 4 per time point), and % ID/g values were calculated as described above. The minimum sample size needed for the biodistribution study in U-87 MG-bearing mice was calculated using G Power software version 3.1.9.7. The calculation was based on a two-tailed test, with an effect size of 3.9, a significance level (α) of 0.05, and a statistical power (1 − β) of 0.8. […] The minimum required sample size for the biodistribution study in A549 and U-87 MG co-implantation mice was also calculated to be four animals per group (effect size = 2.5, α = 0.05, 1 − β = 0.8). To guarantee objective results, the experiment was carried out in a blinded manner. Specifically, drug administration and radioactivity measurements were conducted by different investigators to eliminate potential bias.

The mark [1] stands for this setting: 30 min after i.v. administration, U-87 MG and A549 co-implanted mice, mean ± SD, n = 4.
Where [2] appears, read: 2 h after i.v. administration, U-87 MG and A549 co-implanted mice, mean ± SD, n = 4.
The mark [3] stands for this setting: 4 h after i.v. administration, U-87 MG and A549 co-implanted mice, mean ± SD, n = 4.

As for `N=C(N)NCCC[C@@H]1NC(=O)[C@H]2CSCc3cc(cc(c3)CSC[C@H](C(N)=O)NC(=O)[C@H](CC(=O)O)NC(=O)CNC1=O)CSC[C@H](NC(=O)CNC(=O)[C@H](CO)NC(=O)c1ccc(NC(=O)CNC(=O)[C@H](CO)NC(=O)[C@@H]3CCCN3C(=O)[C@@H]3CCCN3C(=O)[C@@H]3CCCN3C(=O)CCc3cn(CC[C@H](NC(=O)CCNC(=O)c4cccc(I)c4)C(=O)N4CCC[C@H]4C(=O)N4CCC[C@H]4C(=O)N4CCC[C@H]4C(=O)N[C@@H](CO)C(=O)NCC(=O)Nc4ccc(C(=O)N[C@@H](CO)C(=O)NCC(=O)N[C@H]5CSCc6cc7cc(c6)CSC[C@@H](NC(=O)[C@H](CCC(N)=O)NC(=O)[C@@H]6CCCN6C(=O)[C@H](Cc6c[nH]cn6)NC5=O)C(=O)N[C@@H](CCCNC(=N)N)C(=O)NCC(=O)N[C@@H](CC(=O)O)C(=O)N[C@@H](C(N)=O)CSC7)cc4)nn3)cc1)C(=O)N[C@@H](Cc1c[nH]cn1)C(=O)N1CCC[C@H]1C(=O)N[C@@H](CCC(N)=O)C(=O)N2` [[^125I]bcRGDdimer], under setting [1], the Radioactivity in thyroid is on record as 0.0 ± 0.0 % injected dose and the U87/Muscle radioactivity ratio is reported as 7.1 ± 1.8. Also, under setting [2], the Radioactivity in brain is 0.0 ± 0.0 % injected dose per gram of tissue, the Radioactivity in thyroid was determined as 0.0 ± 0.0 % injected dose, the U87/Blood radioactivity ratio was found to be 22 and the U87/Muscle radioactivity ratio stood at 13.9 ± 6.8. In addition, the Lung-to-blood radioactivity ratio (2 h post-administration) is 3.7. Further, the “Accumulation ratio U87/A549” value (2 h post-administration, co-implanted mice) is listed as 5.4. For the same molecule, under setting [3], the Radioactivity in brain is listed as 0.0 ± 0.0 % injected dose per gram of tissue, the Radioactivity in thyroid is given as 0.0 ± 0.0 % injected dose and the U87/Muscle radioactivity ratio is 10.3 ± 2.5.
